Test system: 616215-338-R-J1-PDC complex spheroid viability
Assay: Anticancer human tumor 616215-338-R-J1-PDC patient-derived colon adenocarcinoma cell line growth inhibition [RAS]
Conditions: for IC50: curve of first compound; for viability, T/C: stronger effect = lower value
Method in brief: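 Tumour cells grown as complex spheroids with HUVEC endothelial cells and mesenchymal stem cells, treated with RAS pathway inhibitor combinations. Each agent spans half-log steps from near clinical Cmax, or 10 microM where Cmax is unknown.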

[1] = second compound 0.00316 µM, first compound 0.0316 µM
[2] = second compound 0.00316 µM, first compound 0.1 µM
[3] = second compound 0.00316 µM, first compound 0.316 µM
[4] = second compound 0.00316 µM, first compound 1 µM
[5] = second compound 0.00316 µM, first compound 3.16 µM
[6] = second compound 0.00316 µM, first compound 10 µM
[7] = second compound 0.01 µM, first compound 0.0316 µM
[8] = second compound 0.01 µM, first compound 0.1 µM
[9] = second compound 0.01 µM, first compound 0.316 µM
[10] = second compound 0.01 µM, first compound 1 µM
[11] = second compound 0.01 µM, first compound 3.16 µM
[12] = second compound 0.01 µM, first compound 10 µM
[13] = second compound 0.0316 µM, first compound 0.0316 µM
[14] = second compound 0.0316 µM, first compound 0.1 µM
[15] = second compound 0.0316 µM, first compound 0.316 µM
[16] = second compound 0.0316 µM, first compound 1 µM
[17] = second compound 0.0316 µM, first compound 3.16 µM
[18] = second compound 0.0316 µM, first compound 10 µM
[19] = second compound 0.1 µM, first compound 0.0316 µM
[20] = second compound 0.1 µM, first compound 0.1 µM
[21] = second compound 0.1 µM, first compound 0.316 µM
[22] = second compound 0.1 µM, first compound 1 µM
[23] = second compound 0.1 µM, first compound 3.16 µM
[24] = second compound 0.1 µM, first compound 10 µM
[25] = second compound 0.316 µM, first compound 0.0316 µM
[26] = second compound 0.316 µM, first compound 0.1 µM
[27] = second compound 0.316 µM, first compound 0.316 µM
[28] = second compound 0.316 µM, first compound 1 µM
[29] = second compound 0.316 µM, first compound 3.16 µM
[30] = second compound 0.316 µM, first compound 10 µM
[31] = second compound 1 µM, first compound 0.0316 µM
[32] = second compound 1 µM, first compound 0.1 µM
[33] = second compound 1 µM, first compound 0.316 µM
[34] = second compound 1 µM, first compound 1 µM
[35] = second compound 1 µM, first compound 3.16 µM
[36] = second compound 1 µM, first compound 10 µM
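Further: spheroids exposed to agents for seven days before viability readout.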
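Wherever viability, T/C is given: 100% = DMSO vehicle control viability.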

CC1(O)CCCC1n1c(=O)c(C(F)F)cc2cnc(NC3CCN(S(C)(=O)=O)CC3)nc21 (stereo not given) + C=CC(=O)N1CCN(c2nc(OCC3CCCN3C)nc3c(F)c(-c4nc(N)cc(C)c4C(F)(F)F)c(Cl)cc23)C(C)C1
IC50 (second compound 0.00316 µM): 295 nM | IC50 (second compound 0.01 µM): 1340 nM | IC50 (second compound 0.0316 µM): 1100 nM | IC50 (second compound 0.1 µM): 1130 nM | IC50 (second compound 0.316 µM): 1060 nM | IC50 (second compound 1 µM): 1180 nM | viability, T/C [1]: 115% | viability, T/C [2]: 125% | viability, T/C [3]: 45.5% | viability, T/C [4]: 52.3% | viability, T/C [5]: 46.1% | viability, T/C [6]: 3.51% | viability, T/C [7]: 124% | viability, T/C [8]: 115% | viability, T/C [9]: 49.8% | viability, T/C [10]: 60.2% | viability, T/C [11]: 49.4% | viability, T/C [12]: 3.84% | viability, T/C [13]: 113% | viability, T/C [14]: 113% | viability, T/C [15]: 50.3% | viability, T/C [16]: 51.6% | viability, T/C [17]: 48.7% | viability, T/C [18]: 1.4% | viability, T/C [19]: 111% | viability, T/C [20]: 114% | viability, T/C [21]: 58% | viability, T/C [22]: 55.4% | viability, T/C [23]: 39.6% | viability, T/C [24]: 1.02% | viability, T/C [25]: 117% | viability, T/C [26]: 107% | viability, T/C [27]: 54.8% | viability, T/C [28]: 49% | viability, T/C [29]: 44.5% | viability, T/C [30]: 1.06% | viability, T/C [31]: 117% | viability, T/C [32]: 108% | viability, T/C [33]: 58.1% | viability, T/C [34]: 53.2% | viability, T/C [35]: 46.3% | viability, T/C [36]: 2.1%

CCC(CC)c1cc(NC2CCC(N)C2)n2nccc2n1 (stereo not given) + C=CC(=O)N1CCN(c2nc(OCC3CCCN3C)nc3c(F)c(-c4nc(N)cc(C)c4C(F)(F)F)c(Cl)cc23)C(C)C1
IC50 (second compound 0.00316 µM): 1770 nM | IC50 (second compound 0.01 µM): 1800 nM | IC50 (second compound 0.0316 µM): 1790 nM | IC50 (second compound 0.1 µM): 1780 nM | IC50 (second compound 0.316 µM): 1800 nM | IC50 (second compound 1 µM): 1860 nM | viability, T/C [1]: 101% | viability, T/C [2]: 97.5% | viability, T/C [3]: 92.6% | viability, T/C [4]: 97.8% | viability, T/C [5]: 0.65% | viability, T/C [6]: 2.31% | viability, T/C [7]: 100% | viability, T/C [8]: 102% | viability, T/C [9]: 96.6% | viability, T/C [10]: 102% | viability, T/C [11]: 0.87% | viability, T/C [12]: 2.95% | viability, T/C [13]: 108% | viability, T/C [14]: 100% | viability, T/C [15]: 90.2% | viability, T/C [16]: 105% | viability, T/C [17]: 0.34% | viability, T/C [18]: 0.25% | viability, T/C [19]: 103% | viability, T/C [20]: 95.2% | viability, T/C [21]: 96.9% | viability, T/C [22]: 104% | viability, T/C [23]: 0.59% | viability, T/C [24]: 0.27% | viability, T/C [25]: 107% | viability, T/C [26]: 90.1% | viability, T/C [27]: 101% | viability, T/C [28]: 105% | viability, T/C [29]: 1.41% | viability, T/C [30]: 1.72% | viability, T/C [31]: 106% | viability, T/C [32]: 106% | viability, T/C [33]: 96.5% | viability, T/C [34]: 114% | viability, T/C [35]: 2.76% | viability, T/C [36]: 2.4%

CCN1CCN(Cc2ccc(Nc3ncc(F)c(-c4cc(F)c5nc(C)n(C(C)C)c5c4)n3)nc2)CC1 + C=CC(=O)N1CCN(c2nc(OCC3CCCN3C)nc3c(F)c(-c4nc(N)cc(C)c4C(F)(F)F)c(Cl)cc23)C(C)C1
IC50 (second compound 0.00316 µM): > 1000 nM | IC50 (second compound 0.01 µM): > 1000 nM | IC50 (second compound 0.0316 µM): > 1000 nM | IC50 (second compound 0.1 µM): > 1000 nM | IC50 (second compound 0.316 µM): > 1000 nM | IC50 (second compound 1 µM): > 1000 nM | viability, T/C (second compound 0.00316 µM, first compound 0.00316 µM): 110% | viability, T/C (second compound 0.00316 µM, first compound 0.01 µM): 110% | viability, T/C [1]: 121% | viability, T/C [2]: 118% | viability, T/C [3]: 150% | viability, T/C [4]: 65% | viability, T/C (second compound 0.01 µM, first compound 0.00316 µM): 112% | viability, T/C (second compound 0.01 µM, first compound 0.01 µM): 120% | viability, T/C [7]: 114% | viability, T/C [8]: 123% | viability, T/C [9]: 145% | viability, T/C [10]: 56.2% | viability, T/C (second compound 0.0316 µM, first compound 0.00316 µM): 113% | viability, T/C (second compound 0.0316 µM, first compound 0.01 µM): 124% | viability, T/C [13]: 116% | viability, T/C [14]: 119% | viability, T/C [15]: 143% | viability, T/C [16]: 71.4% | viability, T/C (second compound 0.1 µM, first compound 0.00316 µM): 102% | viability, T/C (second compound 0.1 µM, first compound 0.01 µM): 102% | viability, T/C [19]: 118% | viability, T/C [20]: 117% | viability, T/C [21]: 141% | viability, T/C [22]: 64.2% | viability, T/C (second compound 0.316 µM, first compound 0.00316 µM): 114% | viability, T/C (second compound 0.316 µM, first compound 0.01 µM): 109% | viability, T/C [25]: 113% | viability, T/C [26]: 131% | viability, T/C [27]: 131% | viability, T/C [28]: 59.3% | viability, T/C (second compound 1 µM, first compound 0.00316 µM): 117% | viability, T/C (second compound 1 µM, first compound 0.01 µM): 116% | viability, T/C [31]: 109% | viability, T/C [32]: 120% | viability, T/C [33]: 154% | viability, T/C [34]: 67.7%

Cc1nc(N2CCC3(CC2)COC(C)C3N)c(CO)nc1Sc1ccnc(N)c1Cl (stereo not given) + C=CC(=O)N1CCN(c2nc(OCC3CCCN3C)nc3c(F)c(-c4nc(N)cc(C)c4C(F)(F)F)c(Cl)cc23)C(C)C1
IC50 (second compound 0.00316 µM): > 10000 nM | IC50 (second compound 0.01 µM): > 10000 nM | IC50 (second compound 0.0316 µM): > 10000 nM | IC50 (second compound 0.1 µM): > 10000 nM | IC50 (second compound 0.316 µM): > 10000 nM | IC50 (second compound 1 µM): > 10000 nM | viability, T/C [1]: 93.3% | viability, T/C [2]: 101% | viability, T/C [3]: 125% | viability, T/C [4]: 95.6% | viability, T/C [5]: 98.1% | viability, T/C [6]: 84.7% | viability, T/C [7]: 114% | viability, T/C [8]: 111% | viability, T/C [9]: 110% | viability, T/C [10]: 110% | viability, T/C [11]: 90.2% | viability, T/C [12]: 83.7% | viability, T/C [13]: 107% | viability, T/C [14]: 110% | viability, T/C [15]: 114% | viability, T/C [16]: 99.3% | viability, T/C [17]: 109% | viability, T/C [18]: 80.6% | viability, T/C [19]: 98.7% | viability, T/C [20]: 113% | viability, T/C [21]: 115% | viability, T/C [22]: 119% | viability, T/C [23]: 97.3% | viability, T/C [24]: 83.2% | viability, T/C [25]: 105% | viability, T/C [26]: 99% | viability, T/C [27]: 129% | viability, T/C [28]: 102% | viability, T/C [29]: 106% | viability, T/C [30]: 73% | viability, T/C [31]: 97.7% | viability, T/C [32]: 110% | viability, T/C [33]: 99.7% | viability, T/C [34]: 109% | viability, T/C [35]: 89.4% | viability, T/C [36]: 75.4%

NC1c2ccccc2OC12CCN(c1cnc3c(N4CCCc5ncccc54)n[nH]c3n1)CC2 (stereo not given) + C=CC(=O)N1CCN(c2nc(OCC3CCCN3C)nc3c(F)c(-c4nc(N)cc(C)c4C(F)(F)F)c(Cl)cc23)C(C)C1
IC50 (second compound 0.00316 µM): > 10000 nM | IC50 (second compound 0.01 µM): > 10000 nM | IC50 (second compound 0.0316 µM): > 10000 nM | IC50 (second compound 0.1 µM): > 10000 nM | IC50 (second compound 0.316 µM): > 10000 nM | IC50 (second compound 1 µM): > 10000 nM | viability, T/C [1]: 119% | viability, T/C [2]: 114% | viability, T/C [3]: 81.2% | viability, T/C [4]: 79.1% | viability, T/C [5]: 58.7% | viability, T/C [6]: 53.5% | viability, T/C [7]: 134% | viability, T/C [8]: 104% | viability, T/C [9]: 95.4% | viability, T/C [10]: 80.5% | viability, T/C [11]: 83% | viability, T/C [12]: 64.2% | viability, T/C [13]: 121% | viability, T/C [14]: 113% | viability, T/C [15]: 95.7% | viability, T/C [16]: 74.9% | viability, T/C [17]: 77.4% | viability, T/C [18]: 60.6% | viability, T/C [19]: 112% | viability, T/C [20]: 110% | viability, T/C [21]: 81.3% | viability, T/C [22]: 93.4% | viability, T/C [23]: 64.7% | viability, T/C [24]: 62.1% | viability, T/C [25]: 120% | viability, T/C [26]: 112% | viability, T/C [27]: 91.4% | viability, T/C [28]: 74.3% | viability, T/C [29]: 70.9% | viability, T/C [30]: 52.3% | viability, T/C [31]: 116% | viability, T/C [32]: 101% | viability, T/C [33]: 91.8% | viability, T/C [34]: 83.6% | viability, T/C [35]: 73% | viability, T/C [36]: 62.3%
